Reference: PubChem BioAssay (NCI)
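Protocol summary: plate cells (96-well), add compound at 5 concentrations, incubate 48 h, interpolate endpoints linearly. Definition used: TGI = concentration required for complete inhibition of growth.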

Legend:
Experiment in all cases: DTP human tumour cell line panel, 48 h
OVCAR-4 ovarian = tested on: OVCAR-4 ovarian
SF-295 CNS = tested on: SF-295 CNS
MALME-3M melanoma = tested on: MALME-3M melanoma
NCI-H460 lung = tested on: NCI-H460 lung
IGROV1 ovarian = tested on: IGROV1 ovarian
UACC-257 melanoma = tested on: UACC-257 melanoma
SNB-19 CNS = tested on: SNB-19 CNS
HOP-92 NSCLC = tested on: HOP-92 NSCLC
UACC-62 melanoma = tested on: UACC-62 melanoma
NCI-H23 lung = tested on: NCI-H23 lung
NCI/ADR-RES ovarian = tested on: NCI/ADR-RES ovarian
ACHN renal = tested on: ACHN renal
OVCAR-3 ovarian = tested on: OVCAR-3 ovarian
SK-OV-3 ovarian = tested on: SK-OV-3 ovarian
NCI-H226 lung = tested on: NCI-H226 lung
NCI-H522 lung = tested on: NCI-H522 lung
LOX IMVI melanoma = tested on: LOX IMVI melanoma
CCRF-CEM leukemia = tested on: CCRF-CEM leukemia
MOLT-4 leukemia = tested on: MOLT-4 leukemia

Row | Compound | TGI (OVCAR-4 ovarian) | TGI (SF-295 CNS) | TGI (MALME-3M melanoma) | TGI (NCI-H460 lung) | TGI (IGROV1 ovarian) | TGI (UACC-257 melanoma) | TGI (SNB-19 CNS) | TGI (HOP-92 NSCLC) | TGI (UACC-62 melanoma) | TGI (NCI-H23 lung) | TGI (NCI/ADR-RES ovarian) | TGI (ACHN renal) | TGI (OVCAR-3 ovarian) | TGI (SK-OV-3 ovarian) | TGI (NCI-H226 lung) | TGI (NCI-H522 lung) | TGI (LOX IMVI melanoma) | TGI (CCRF-CEM leukemia) | TGI (MOLT-4 leukemia)
1 | O=S(=O)(O)CCCC1S(=O)(=O)OCCOS1(=O)=O | > 100 µM | > 100 µM | > 100 µM | > 100 µM | > 100 µM | > 100 µM | > 100 µM | > 100 µM | > 100 µM | > 100 µM | > 100 µM | > 100 µM | > 100 µM | > 100 µM | > 100 µM | > 100 µM | > 100 µM |  | 
2 | COC(=O)C(C)(C)OCc1ccc(C2NC(=O)N(c3cccc(Cl)c3)C(=O)N2c2cccc(Cl)c2)cc1 (configuration not stated) | > 100 µM | > 100 µM |  | > 100 µM | > 100 µM | > 100 µM | > 100 µM | 69.7 µM | > 100 µM | 22.1 µM | > 100 µM | > 100 µM | > 100 µM | > 100 µM |  | 76.8 µM |  | > 100 µM | > 100 µM
3 | N#Cc1c2c(c(Nc3cccc(C(F)(F)F)c3)n3c1nc1ccccc13)CCC2 | > 100 µM | > 100 µM | > 100 µM |  |  | > 100 µM |  | > 100 µM |  | > 100 µM | > 100 µM | > 100 µM | > 100 µM | > 100 µM | > 100 µM | > 100 µM | > 100 µM |  | > 100 µM
4 | C=[N+](CNC(=O)CNC(=O)C(Cc1ccc([N+](=O)[O-])cc1)NC(=O)OC(C)(C)C)C(=O)CNC(=O)C(Cc1ccc([N+](=O)[O-])cc1)NC(=O)OC(C)(C)C (configuration not stated) | > 100 µM | > 100 µM | > 100 µM | > 100 µM | > 100 µM |  | > 100 µM | > 100 µM | 50.1 µM | > 100 µM | > 100 µM | > 100 µM | > 100 µM | > 100 µM | > 100 µM | 79.8 µM | 33.4 µM |  | 67.4 µM
5 | CCOC(=O)C1C(c2ccc(OC)cc2)c2c([nH]n(-c3ccccc3)c2=O)CC1(O)OCC (configuration not stated) | > 100 µM | > 100 µM | > 100 µM | > 100 µM | > 100 µM | > 100 µM |  | > 100 µM | > 100 µM | > 100 µM | > 100 µM | > 100 µM | > 100 µM |  |  | > 100 µM | > 100 µM |  | 14 µM
6 | O=[N+]([O-])c1ccc(-c2nc3ccc([N+](=O)[O-])cc3[nH]2)cc1 | > 100 µM | 66.1 µM | 84.2 µM | 65.1 µM | > 100 µM | > 100 µM | > 100 µM | 59.4 µM | > 100 µM | 65.3 µM | 57.6 µM | > 100 µM | > 100 µM | > 100 µM | > 100 µM | 88.4 µM | 67.8 µM |  | > 100 µM
